Tests used:
Format in all cases: in vivo
[1] = Catalepsy (drug-induced catalepsy); details: rat, in vivo, po, rats; read-out: Catalepsy Induction ED50
Excerpt: (§1) 3. Catalepsy - drug-induced catalepsy in rats is predic-
(§2) tive of potential extrapyramidal symptoms (EPS) in man.
(§3) of: Costall, et al., Psychopharmacologia, 34, 233-241

[2] = test system: neuroleptic-induced catalepsy in the rat; assay: Catalepsy Reversal; details: po
Excerpt: 4. Catalepsy Reversal - measure of a drug's ability to
reverse neuroleptic-induced catalepsy in the rat.

[3] = test system: avoidance response to electrical shock in trained fasted rats; assay: Conditioned Avoidance Response (CAR); details: Rattus norvegicus, po
Excerpt: Conditioned Avoidance Response (CAR) - measure of a
drug's tranquilizing activity as determined by its
attenuation of avoidance response to electrical shock
in trained fasted rats. cf: Albert, Pharmacologist, 4,

[4] = test system: apomorphine-induced stereotypy in rats; assay: Inhibition of Apomorphine-Induced (APO) Stereotypy; details: Rattus norvegicus, po
Excerpt: 2. Inhibition of Apomorphine-Induced (APO) Stereotypy -
an assessment of blockade of dopaminergic activity in
rats as measured by attenuation of the behavioral
syndrome caused by the dopamine agonist, apomorphine.
of: Janssen, et al., Arzneimittel. Forsch., 17, 841

[5] = test system: drug-induced catalepsy in rats; assay: Catalepsy (drug-induced catalepsy); details: p.o.
Excerpt: as §1, §2, §3

With CC1(C)CC(=O)N(CCCCN2CCN(c3nccc4sccc34)CC2)C(=O)C1 [Example 24, 4,4-Dimethyl-1-[4-[4-(thieno[3,2-c]pyridin-4-yl)-1-piperazinyl]butyl]-2,6-piperidinedione] the ED50 [1] was > 24 mg/kg, the ED50 [2] was > 20 mg/kg and the ED50 [3] was 6 mg/kg. For the same compound, the ED50 [4] was 40 mg/kg.
In the case of O=C1COCC(=O)N1CCCCN1CCN(c2nccc3occc23)CC1 [Example 25, 4-[4-[4-(4-Furo[3,2-c]pyridinyl)-1-piperazinyl]butyl]-3,5-morpholinedione], the ED50 [1] is reported as > 46 mg/kg, the ED50 [2] is reported as 2 mg/kg and the ED50 [3] is reported as 11 mg/kg. For the same compound, the ED50 [4] was 34 mg/kg.
For O=C1SC2(CCCC2)C(=O)N1CCCCN1CCN(c2nccc3sccc23)CC1 [Example 26], the ED50 [2] was > 20 mg/kg, the ED50 [3] was 12 mg/kg and the ED50 [4] was 35 mg/kg.
With OC(CCCN1CCN(c2nccc3sccc23)CC1)c1ccc(F)cc1 (centres unmarked) [Example 27] the ED50 [1] was > 40 mg/kg, the ED50 [2] was > 20 mg/kg and the ED50 [3] was 10 mg/kg. It also gave an ED50 [4] of 9 mg/kg.
With O=C1SC2(CCCC2)C(=O)N1CCCCN1CCN(c2nccc3sc(Br)cc23)CC1 [Example 28] the ED50 [2] was 16 mg/kg, the ED50 [3] was > 100 mg/kg and the ED50 [4] was > 100 mg/kg.
For CC1(C)CC(=O)N(CCCCN2CCN(c3nccc4sc(Br)cc34)CC2)C(=O)C1 [Example 29], the ED50 [2] was > 20 mg/kg and the ED50 [3] was 65 mg/kg.
In the case of Cc1cc2c(N3CCN(CCCCN4C(=O)SC5(CCCC5)C4=O)CC3)nccc2s1 [Example 30], the ED50 [1] is reported as > 142 mg/kg, the ED50 [2] is reported as > 20 mg/kg and the ED50 [3] is reported as 35 mg/kg.
With O=C1CSCC(=O)N1CCCCN1CCN(c2nccc3sccc23)CC1 [Example 31] the ED50 [1] was > 128 mg/kg, the ED50 [2] was > 20 mg/kg and the ED50 [3] was 32 mg/kg.
With O=C1SC2(CCCC2)C(=O)N1CCCCN1CCN(c2nccc3ccsc23)CC1 [Example 36] the ED50 [2] was > 20 mg/kg, the ED50 [3] was 43 mg/kg and the ED50 [4] was 47 mg/kg.
In the case of O=C1SC2(CCCC2)C(=O)N1CCCCN1CCN(c2nccc3occc23)CC1 [Example 37], the ED50 [1] is reported as 23 mg/kg, the ED50 [2] is reported as > 20 mg/kg and the ED50 [3] is reported as 9 mg/kg. It also gave an ED50 [4] of 18 mg/kg.
In the case of CC1(C)CC(=O)N(CCCCN2CCN(c3nccc4occc34)CC2)C(=O)C1 [Example 38], the ED50 [1] is reported as 13 mg/kg, the ED50 [2] is reported as > 20 mg/kg and the ED50 [3] is reported as 4 mg/kg. The ED50 [4] was 7 mg/kg.
In the case of OC(CCCN1CCN(c2nccc3occc23)CC1)c1ccc(F)cc1 (centres unmarked) [Example 39], the ED50 [1] is reported as 11 mg/kg, the ED50 [2] is reported as > 20 mg/kg and the ED50 [3] is reported as 3 mg/kg. The ED50 [4] was 5 mg/kg.
Cc1cc2c(N3CCN(CCCCN4C(=O)SC5(CCCC5)C4=O)CC3)nccc2o1 [Example 40] gave an ED50 [3] of 28 mg/kg and an ED50 [4] of 41 mg/kg.
In the case of Cc1cc2c(N3CCN(CCCCN4C(=O)CC(C)(C)CC4=O)CC3)nccc2o1 [Example 41], the ED50 [1] is reported as 40 mg/kg, the ED50 [2] is reported as > 20 mg/kg and the ED50 [3] is reported as 14 mg/kg. It also gave an ED50 [4] of 22 mg/kg.
For O=C1CSCC(=O)N1CCCCN1CCN(c2nccc3occc23)CC1 [Example 42], the ED50 [2] was > 20 mg/kg, the ED50 [3] was 36 mg/kg and the ED50 [4] was 63 mg/kg.
For Cc1cc2c(N3CCN(CCCC(O)c4ccc(F)cc4)CC3)nccc2o1 (centres unmarked) [Example 43], the ED50 [2] was > 20 mg/kg and the ED50 [3] was 23 mg/kg.
For Cn1ccc2c(N3CCN(CCCCN4C(=O)SC5(CCCC5)C4=O)CC3)nccc21 [Example 47], the ED50 [2] was > 20 mg/kg, the ED50 [3] was 60 mg/kg and the ED50 [4] was 61 mg/kg.
With Cn1ccc2c(N3CCN(CCCCN4C(=O)COCC4=O)CC3)nccc21 [Example 48] the ED50 [2] was > 20 mg/kg, the ED50 [3] was > 100 mg/kg and the ED50 [4] was > 100 mg/kg.
For Cn1ccc2c(N3CCN(CCCCN4C(=O)CC(C)(C)CC4=O)CC3)nccc21 [Example 49], the ED50 [2] was > 20 mg/kg, the ED50 [3] was 67 mg/kg and the ED50 [4] was > 100 mg/kg.
For O=C1CCCC(=O)N1CCCCN1CCN(c2nccc3sccc23)CC1 [Example 58], the “Catalepsy Induction ED50” value [5] was “Inactive at 4 ×”, the ED50 [2] was > 20 mg/kg and the ED50 [3] was 5 mg/kg. It also gave an ED50 [4] of 56 mg/kg.

Source: patent publication US4677104A, “Antipsychotic fused-ring pyridinylpiperazine derivatives” (Bristol-Myers Company, priority 1986, dated 1987)
